Data on one molecule can be found in ChEMBL document CHEMBL1145489, “Isoniazid induces its own resistance in nonreplicating Mycobacterium tuberculosis” (Antimicrob Agents Chemother, 2007).

What all share (assay type): functional
Test [1] deals with Mycobacterium tuberculosis. Description: Antimicrobial activity against Mycobacterium tuberculosis H37Rv subculture 1 with wild type katG mutation.
Test [2] has as its system Mycobacterium tuberculosis. Briefly: Antimicrobial activity against Mycobacterium tuberculosis H37Rv subculture 3 with katG D329H mutant.
Test [3] deals with Mycobacterium tuberculosis. Briefly: Antimicrobial activity against Mycobacterium tuberculosis H37Rv subculture 4 with wild type katG mutation in presence of catalase activity.
In test [4] the test system is Mycobacterium tuberculosis. Briefly: Antimicrobial activity against Mycobacterium tuberculosis H37Rv subculture 5 with wild type katG mutation in absence of catalase activity.
The test system of test [5] is Mycobacterium tuberculosis. Briefly: Antimicrobial activity against Mycobacterium tuberculosis H37Rv subculture 6 with katG W328R mutant.

≈ marks a conversion by molar mass, not a printed value.

With `NNC(=O)c1ccncc1` [ISONIAZID], the MIC in test [1] is 0.4 µg/mL (≈ 2.92 µM); in test [2] it was over 2 µg/mL; in test [3], over 2 µg/mL; in test [4] it was 0.4 µg/mL (≈ 2.92 µM); in test [5], over 2 µg/mL.

As a reminder, the MIC is the lowest concentration that inhibits growth of the organism.
